For one data set, the system named is HeLa. The data set is described as follows: MTT assay, antiproliferative activity. The format is cell-based. The settings on record: Homo sapiens, 10 µM, 48h, read-out: Mean Growth Percentage. The protocol:
(§1) Pyrazole acylhydrazones 10–13 and amides 14–22 were tested by MTT assay to evaluate their antiproliferative and cytotoxicity properties against a panel of eight tumor cell lines and normal fibroblasts.
(§2) All reagents were purchased from EuroClone, Milan, Italy). The following cell lines were used for MTT assays: SKOV-3 (ovarian adenocarcinoma, ATCC, Manassas, VA, USA); MCF-7 (breast adenocarcinoma, Biologic Bank and Cell Factory, IRCCS Policlinico San Martino, Genoa, Italy); Hep-G2 (hepatocellular carcinoma, ATCC, Manassas, VA, USA); SK-MEL28 (skin melanoma, Biologic Bank and Cell Factory, IRCCS Policlinico San Martino, Genoa, Italy), GM-6114 (embryonic human fibroblast, ATCC, Manassas, VA, USA); MDA-MB231 (breast adenocarcinoma, Biologic Bank and Cell Factory, IRCCS Policlinico San Martino, Genoa, Italy); HeLa (cervical adenocarcinoma, Biologic Bank and Cell Factory, IRCCS Policlinico San Martino, Genoa, Italy); SK-BR3 (breast andenocarcinoma, Biologic Bank and Cell Factory, IRCCS Policlinico San Martino, Genoa, Italy); A549 (lung carcinoma, Biologic Bank and Cell Factory, IRCCS Policlinico San Martino, Genoa, Italy); HUVEC (Human Umbilical Vein Endothelial Cells, ATCC, Manassas, VA, USA). All cell lines were grown in their medium with 10% FBS, 2 mM Glutamine, and 1% penstrep and incubated at 37 °C in 5% CO2 in a humidified environment. The cell lines were plated in 96-well plates at an adequate number to reach 80–90% confluence at the end of the assay. 16 h after cell plating, a 10 mM DMSO stock solution of the compounds was diluted in growth medium and added at a final working concentration of 10 μM. After 48h of incubation, a 2 mg/mL PBS solution of MTT (3-(4,5-dimethyl-2-thiazolyl)-2,5-diphenyl-2H-tetrazolium bromide) was added (30 μL/well). After 4h, the supernatant was removed, and the Formazan precipitates were dissolved in DMSO (100 μL/well). The 96-well plates were incubated for 20 min, and absorbance was measured at 570 nm using a plate reader. The results are expressed as a percentage ratio over control samples (100%) in which the cells were incubated with the same amount of DMSO but without compounds. Each value is the mean of three independent experiments run in six replicates.
(§3) Each IC50 value is the mean of three independent experiments run in duplicate.

In another data set the test system is SKOV3. The data set is described as follows: MTT assay, antiproliferative activity. The format is cell-based. Particulars: Homo sapiens, SK-OV-3, 10 µM, 48h. The protocol:
as §1, §2, §3

The subject of a further data set is SKMEL28. The data set is described as follows: MTT assay, antiproliferative activity. The format is cell-based. Particulars: Homo sapiens, SK-MEL-28, 10 µM, 48h. The method, then: as §1, §2, §3
(Formazan colour is commonly taken as a measure of viable cells.)

The next data set relates to MCF7. The data set is described as follows: MTT assay, antiproliferative activity. The class given is cell-based. Particulars: Homo sapiens, 10 µM, 48h. The method, then:
as §1, §2, §3

Data set [1] deals with washed platelets. The data set is described as follows: Platelet aggregation (thrombin-induced, Born's method). Particulars: Homo sapiens, 0.1 U/mL thrombin, mean ± SD, read-out: IC50 Aggregation inhibition. The format is cell-based. The method, then:
(§4) The antioxidant properties of acylhydrazones 10–13 and pyrazolyl amides 14–22 were tested by evaluating their inhibition of platelet aggregation and ROS production (Figure 3, Table S1). In fact, human platelets could represent a fast and low-cost biological model to screen compounds as anticancer, anti-inflammatory, and antiaggregating agents. Moreover, ROS production inhibition, related to human platelet aggregation, could provide a good indication of the anti-inflammatory and antioxidant properties of the newly synthesized compounds [47, 50, 51, 52]. N-acetylcysteine (NAC) and acetyl salicylic acid (ASA) were used as reference drugs for antioxidant and antiaggregant activities, respectively.
(§5) Freshly drawn venous blood from healthy volunteers from “Centro Trasfusionale” (IRCCS Policlinico San Martino, Genoa, Italy) was collected into a 130 mM aqueous trisodium citrate anticoagulant solution (9:1). The donors claimed to not have taken drugs known to interfere with platelet function during the two weeks prior to blood collection and gave their informed consent. Whole blood was centrifuged at 100× g for 20 min to afford platelet-rich plasma that was then spun at 1100× g for 15 min. The obtained pellet was washed once with a pH 5.2 ACD solution (75 mM trisodium citrate, 42 mM citric acid, and 136 mM glucose), centrifuged at 1100× g for 15 min, and then re-suspended in pH 7.4 Hepes buffer (145 mM NaCl, 5 mM KCl, 1 mM MgSO4, 10 mM glucose, and 10 mM HEPES).
Thrombin was purchased from Sigma-Aldrich/Merck Millipore. A DMSO solution of compounds 10–22 was diluted in saline immediately before each experiment and added to the washed platelets (3.0 × 10^8/mL) at 37 °C. After 3 min, 0.1 U/mL thrombin was added, and platelet aggregation was quantified according to Born’s method using a Bio-Data Aggregometer (Bio-Data Corporation, Horsham, PA, USA). The IC50 values were calculated as detailed above.

Data set [2] deals with washed platelets. Nature of the data set: ROS assay in platelets (DCFH-DA, thrombin-stimulated). The settings on record: Homo sapiens, Platelet, 0.1 U/mL thrombin, mean ± SD, read-out: IC50 ROS production inhibition. The class given is cell-based, human. The method, then: as §4, §5
2′,7′-Dichlorofluorescein diacetate (DCFH-DA) and thrombin were purchased from Sigma-Aldrich/Merck Millipore. DMSO solutions of 10–22 were diluted in saline immediately before each experiment. ROS production was quantified by DCFH-DA, a ROS-sensitive probe that yields, upon oxidation, the fluorescent adduct DCF that is trapped inside the cells. Briefly, washed platelets (1.0 × 10^8/mL), pre-incubated with saline solutions of 10–22 for 15 min at 37 °C, were stimulated by 0.1 U/mL thrombin. Incubation was stopped by cooling samples in an ice bath, and then samples were immediately analyzed in a Merck Millipore Bioscience Guava easyCyte flow cytometer (Merk Millipore, Burlington, MA, USA). The reported IC50 values represent the molar concentration of the compounds able to inhibit 50% of the maximal aggregation induced by the agonist and are calculated as the percentage inhibition of the maximal aggregation measured in the presence of the agent compared with the measure in a control sample containing saline, carried out under the same conditions. The IC50 values were extrapolated from nonlinear regression analysis of concentration–response curves (three points) using MS Excel software (Microsoft 365 suite). Each IC50 value is the mean of six independent experiments.

A further data set deals with A549. The data set is described as follows: MTT assay, antiproliferative activity. The class given is cell-based. Particulars: Homo sapiens, 48h, read-out: Mean Growth Percentage. The method, then: as §1, §2
In another data set the test system is MDA-MB231. The data set is described as follows: MTT assay, antiproliferative activity. The format is cell-based. The settings on record: Homo sapiens, MDA-MB-231, 48h. The method, then:
as §1, §2

The test system of the next data set is SK-BR3. Nature of the data set: MTT assay, antiproliferative activity. The settings on record: Homo sapiens, SK-BR-3, 48h. The format is cell-based. The protocol: as §1, §2
Another data set deals with Hep-G2. The data set is described as follows: MTT assay, antiproliferative activity. The format is cell-based. Particulars: Homo sapiens, HepG2, 48h. The method, then:
as §1, §2

A short description of data set [3]: DPPH radical-scavenging activity. The arrangement: AA (%), percentage of antioxidant activity: concentration or dose not given beside the values. The class given is physicochemical. Particulars: mean ± SD, n = 2. The method, then:
The antioxidant activity of the representative compounds of the two series (namely, acylhydrazones 10b, 11a, 11d, 12d, 13d, and amides 14, 22) was measured in vitro using the 2,2-diphenyl-1-picrylhydrazyl (DPPH) assay. The results were calculated as Trolox equivalent and expressed as a percentage of antioxidant activity (AA) (Table 3). […] Derivatives 10b and 12d were endowed with the highest antioxidant activity, thus highlighting the relevance of both pyrazole N1 and acylhydrazone substituents on compounds’ radical scavenging properties.
Compounds 10b, 11a, 11d, 12d, 13d, 14, and 22 (ca. 3 mg) were dissolved in DMSO (1 mL), and then 100 µL of this solution was mixed with 3.9 mL of DPPH methanol solution (65 µM). Absorbance was measured at 517 nm after reacting for 30 min in the dark. The linear calibration curve was obtained using Trolox standards (ranging between 20 and 200 mg/L, R^2 = 0.9955). The result was calculated as Trolox equivalent in mg/L, and the percentage of antioxidant activity (AA%) was calculated from the ratio of decreasing absorbance of sample solution (A0 − As) to absorbance of blank DPPH solution (A0), as expressed in Equation (1). (1) AA%=A0−As/A0×100
All analyses were carried out in duplicate (n = 2), and values are given as means ± standard deviation (SD).

The next data set deals with GM-6114. Nature of the data set: MTT assay, cytotoxicity on normal fibroblasts. The format is cell-based. The settings on record: human, 48 h, 10 µM.

Values joined by “and” are separate entries in the source; they are usually repeats but may differ in a detail not shown here. Equal entries are not always repeated.

For `COc1ccc(/C=N/NC(=O)c2c(N)n[nH]c2Nc2ccccc2)cc1OC` [10b, (E)-3-amino-N′-(3,4-dimethoxybenzylidene)-5-(phenylamino)-1H-pyrazole-4-carbohydrazide], the activity at 10 µM turned out to be 105% in the data set on HeLa and 91.1% in the data set on A549. The Mean growth percentage at 10 µM with SKOV3 was 114%; in the data set on SKMEL28, 94.5%; with MDA-MB231, 100%; with SK-BR3, 91.6%; in the data set on Hep-G2, 115%. Further, the mean growth percentage (cell growth remaining vs control) at 10 µM in the data set with MCF7 was 95.3%. Moreover, the IC50 (in general, the concentration that inhibits the measured activity by half) with washed platelets [1] came out at 94 ± 7 µM; in the data set with washed platelets [2], 104 ± 4 µM. Also, the “AA (%), percentage of antioxidant activity” value in data set [3] was 76.45% and 76.45 ± 0.39%. The “DPPH (%)” value in data set [3] is 23.55 ± 0.39%. Besides, in the data set with GM-6114, the “Mean Growth Percentage” value is on record as 107.36%.

`COc1ccc(/C=N/NC(=O)c2c(Nc3ccccc3)nn(C)c2N)cc1OCc1ccccc1` [12d, (E)-5-amino-N′-(3-(benzyloxy)-4-methoxybenzylidene)-1-methyl-3-(phenylamino)-1H-pyrazole-4-carbohydrazide]: the activity at 10 µM in the data set with HeLa worked out at 85.7%; with A549, 102%. Moreover, the Mean growth percentage at 10 µM in the data set on SKOV3 was found to be 106%; in the data set on SKMEL28, 80.8%; in the data set on MDA-MB231 it was 94.1%; with SK-BR3 it was 90.6%; in the data set with Hep-G2, 105%. This compound gave a mean growth percentage (cell growth remaining vs control) at 10 µM with MCF7 of 85.2%. The IC50 with washed platelets [1] came out at 433 ± 16 µM; in the data set on washed platelets [2], 171 ± 9 µM. Moreover, the “AA (%), percentage of antioxidant activity” value in data set [3] is 69.10 ± 0.39%. Further, the “DPPH (%)” value in data set [3] stood at 30.90 ± 0.39%. The “Mean Growth Percentage” value in the data set with GM-6114 stood at 102.79%.

On to `CCOC(=O)c1c(NC(=O)c2c(OC)cccc2OC)nn(C)c1Nc1ccccc1` [compound 20, Ethyl 3-(2,6-dimethoxybenzamido)-1-methyl-5-(phenylamino)-1H-pyrazole-4-carboxylate], for which the melting point (as a rule, the temperature of the solid-liquid transition) lay within 158 to 160 °C. In addition, in the data set with HeLa, the activity at 10 µM amounted to 111%. In the data set with SKOV3, the Mean growth percentage at 10 µM turned out to be 84.4%. The compound further showed a Mean growth percentage at 10 µM in the data set on SKMEL28 of 83.6%. Further, the mean growth percentage (cell growth remaining vs control) at 10 µM in the data set on MCF7 was determined as 92.1%. In the data set on washed platelets [1], the half-inhibitory concentration (IC50) was found to be 301 ± 24 µM. In addition, the IC50 in the data set on washed platelets [2] was determined as 289 ± 27 µM. In addition, the activity at 10 µM with A549 was determined as 70.8%. In addition, the Mean growth percentage at 10 µM in the data set on MDA-MB231 stood at 124%. In the data set on SK-BR3, the Mean growth percentage at 10 µM was 106%. Further, the Mean growth percentage at 10 µM in the data set on Hep-G2 came to 108%. Further, the “Mean Growth Percentage” value in the data set with GM-6114 is 64.71%.

On to `CCOC(=O)c1c(NC(=O)c2ccc(OC)c(OC)c2)nn(C)c1Nc1ccccc1` [compound 21, Ethyl 3-(3,4-dimethoxybenzamido)-1-methyl-5-(phenylamino)-1H-pyrazole-4-carboxylate], for which the melting point is 186 to 187 °C. Moreover, the activity at 10 µM with HeLa was 108%. Also, the Mean growth percentage at 10 µM with SKOV3 stood at 90.2%. This compound also returned a Mean growth percentage at 10 µM in the data set on SKMEL28 of 84.6%. For the same compound, the mean growth percentage (cell growth remaining vs control) at 10 µM in the data set on MCF7 was 90.3%. Also, the 50% inhibitory concentration (IC50) in the data set with washed platelets [1] stood at 278 ± 27 µM. Moreover, the half-maximal inhibitory concentration (IC50) in the data set on washed platelets [2] turned out to be 262 ± 13 µM. Moreover, the activity at 10 µM with A549 amounted to 112%. In addition, the Mean growth percentage at 10 µM with MDA-MB231 amounted to 149%. Besides, in the data set on SK-BR3, the Mean growth percentage at 10 µM worked out at 107%. Also, in the data set on Hep-G2, the Mean growth percentage at 10 µM worked out at 97.9%. Further, the “Mean Growth Percentage” value in the data set on GM-6114 came out at 85.88%.

The values above are taken from paper PMC11083148, “Structure–Activity Relationship Studies on Highly Functionalized Pyrazole Hydrazones and Amides as Antiproliferative and Antioxidant Agents” (International Journal of Molecular Sciences, 2024).
